Data: ChEMBL document CHEMBL3045273, “Synthesis, characterization, and pharmacological evaluation of 1-[2-(6-nitro-4-oxo-2-phenyl-4H-quinazolin-3-yl)-ethyl]-3-phenyl ureas” (2013)
≈ marks a conversion by molar mass, not a printed value.

Tests used:
Bacillus subtilis [1] = experiment: Antibacterial activity against Bacillus subtilis ATCC 11774 assessed as growth inhibition at 100 ug/ml after 24 hr by Kirby-Bauer disk diffusion method; format: functional; details: ATCC 11774, 24 h, read-out: DIZ
Escherichia coli [2] = experiment: Antibacterial activity against Escherichia coli ATCC 25922 assessed as growth inhibition after 24 hr by serial broth dilution method; format: functional; details: ATCC 25922, 24 h
Staphylococcus aureus [3] = experiment: Antibacterial activity against Staphylococcus aureus ATCC 25923 assessed as growth inhibition at 300 ug/ml after 24 hr by Kirby-Bauer disk diffusion method; format: functional; details: ATCC 25923, 24 h, read-out: DIZ
Candida albicans [4] = experiment: Antifungal activity against Candida albicans ATCC 66027 assessed as growth inhibition at 20 ug/ml after 24 hr by Kirby-Bauer disk diffusion method; format: functional; details: ATCC 66027, 24 h, read-out: DIZ
Escherichia coli [5] = experiment: microbe, parasite or virus in culture; details: ATCC 25922, 24 h, read-out: DIZ
Description: Antibacterial activity against Escherichia coli ATCC 25922 assessed as growth inhibition at 100 ug/ml after 24 hr by Kirby-Bauer disk diffusion method

Pseudomonas aeruginosa [6] = experiment: Antibacterial activity against Pseudomonas aeruginosa ATCC 27853 assessed as growth inhibition at 100 ug/ml after 24 hr by Kirby-Bauer disk diffusion method; format: functional; details: ATCC 27853, 24 h, read-out: DIZ
Pseudomonas aeruginosa [7] = experiment: Antibacterial activity against Pseudomonas aeruginosa ATCC 27853 assessed as growth inhibition at 300 ug/ml after 24 hr by Kirby-Bauer disk diffusion method; format: functional; details: ATCC 27853, 24 h, read-out: DIZ
Staphylococcus aureus [8] = experiment: Antibacterial activity against Staphylococcus aureus ATCC 25923 assessed as growth inhibition after 24 hr by serial broth dilution method; format: functional; details: ATCC 25923, 24 h
Staphylococcus aureus [9] = experiment: Antibacterial activity against Staphylococcus aureus ATCC 25923 assessed as growth inhibition at 100 ug/ml after 24 hr by Kirby-Bauer disk diffusion method; format: functional; details: ATCC 25923, 24 h, read-out: DIZ
Candida albicans [10] = experiment: Antifungal activity against Candida albicans ATCC 66027 assessed as growth inhibition at 300 ug/ml after 24 hr by Kirby-Bauer disk diffusion method; format: functional; details: ATCC 66027, 24 h, read-out: DIZ
Candida albicans [11] = experiment: Antifungal activity against Candida albicans ATCC 66027 assessed as growth inhibition after 24 hr by serial broth dilution method; format: functional; details: ATCC 66027, 24 h
Pseudomonas aeruginosa [12] = experiment: Antibacterial activity against Pseudomonas aeruginosa ATCC 27853 assessed as growth inhibition after 24 hr by serial broth dilution method; format: functional; details: ATCC 27853, 24 h
Staphylococcus aureus [13] = experiment: Antibacterial activity against Staphylococcus aureus ATCC 25923 assessed as initial concentration required for appearance of zone of inhibition after 24 hr; format: functional
Bacillus subtilis [14] = experiment: Antibacterial activity against Bacillus subtilis ATCC 11774 assessed as initial concentration required for appearance of zone of inhibition after 24 hr; format: functional
Pseudomonas aeruginosa [15] = experiment: Antibacterial activity against Pseudomonas aeruginosa ATCC 27853 assessed as initial concentration required for appearance of zone of inhibition after 24 hr; format: functional
Candida albicans [16] = experiment: Antifungal activity against Candida albicans ATCC 66027 assessed as growth inhibition at 100 ug/ml after 24 hr by Kirby-Bauer disk diffusion method; format: functional; details: ATCC 66027, 24 h, read-out: DIZ
Bacillus subtilis [17] = experiment: Antibacterial activity against Bacillus subtilis ATCC 11774 assessed as growth inhibition after 24 hr by serial broth dilution method; format: functional; details: ATCC 11774, 24 h
Escherichia coli [18] = experiment: Antibacterial activity against Escherichia coli ATCC 25922 assessed as growth inhibition at 70 ug/ml after 24 hr by Kirby-Bauer disk diffusion method; format: functional; details: ATCC 25922, 24 h, read-out: DIZ
Bacillus subtilis [19] = experiment: Antibacterial activity against Bacillus subtilis ATCC 11774 assessed as growth inhibition at 300 ug/ml after 24 hr by Kirby-Bauer disk diffusion method; format: functional; details: ATCC 11774, 24 h, read-out: DIZ
Escherichia coli [20] = experiment: microbe, parasite or virus in culture; details: ATCC 25922, 24 h, read-out: DIZ; remark: listed apart in the source
Description: Antibacterial activity against Escherichia coli ATCC 25922 assessed as growth inhibition at 300 ug/ml after 24 hr by Kirby-Bauer disk diffusion method

Candida albicans [21] = experiment: Antifungal activity against Candida albicans ATCC 66027 assessed as initial concentration required for appearance of zone of inhibition after 24 hr; format: functional
Escherichia coli [22] = experiment: Antibacterial activity against Escherichia coli ATCC 25922 assessed as initial concentration required for appearance of zone of inhibition after 24 hr; format: functional

MIC (Escherichia coli [2]): 40 µg/mL (≈ 89 µM)
MIC (Staphylococcus aureus [8]): 100 µg/mL (≈ 222 µM)
MIC (Candida albicans [11]): 10 µg/mL (≈ 22.2 µM)
MIC (Pseudomonas aeruginosa [12]): 70 µg/mL (≈ 156 µM)
MIC (Bacillus subtilis [17]): 100 µg/mL (≈ 222 µM)
SMILES: CC1CCC(NC(=O)NCCn2c(-c3ccccc3)nc3ccc([N+](=O)[O-])cc3c2=O)CC1 (configuration not stated)
zone of inhibition at 100 µg/mL (Bacillus subtilis [1]): 11 mm
zone of inhibition at 300 µg/mL (Staphylococcus aureus [3]): 14 mm
zone of inhibition at 20 µg/mL (Candida albicans [4]): 11 mm
zone of inhibition at 100 µg/mL (Escherichia coli [5]): 13 mm
zone of inhibition at 100 µg/mL (Pseudomonas aeruginosa [6]): 12 mm
zone of inhibition at 300 µg/mL (Pseudomonas aeruginosa [7]): 21 mm
zone of inhibition at 100 µg/mL (Staphylococcus aureus [9]): 11 mm
zone of inhibition at 300 µg/mL (Candida albicans [10]): 20 mm
Activity (Staphylococcus aureus [13]): 100 µg/mL
Activity (Bacillus subtilis [14]): 100 µg/mL
Activity (Pseudomonas aeruginosa [15]): 70 µg/mL
zone of inhibition at 100 µg/mL (Candida albicans [16]): 15 mm
zone of inhibition at 70 µg/mL (Escherichia coli [18]): 11 mm
zone of inhibition at 300 µg/mL (Bacillus subtilis [19]): 14 mm
zone of inhibition at 300 µg/mL (Escherichia coli [20]): 17 mm
Activity (Candida albicans [21]): 20 µg/mL
Activity (Escherichia coli [22]): 70 µg/mL
